# Test results reported in patent US20220323406A1, “METHODS AND COMPOSITIONS FOR DIFFERENTIATING STEM CELLS” (Massachusetts Institute of Technology, priority 2019, published 2022).
# Key:
# [1] = system: ENR+CD organoids (ISC to Paneth cell differentiation); experiment: Primary screen: CCh-stimulated lysozyme secretion LYZ.S, 2.5-D 384-well ENR+CD organoid differentiation; format: cell-based, mouse; conditions: primary screen
# From the text: (§1) High-throughput screening.
# [2] = system: ENR+CD organoids (ISC to Paneth cell differentiation); experiment: Primary screen: basal (non-stimulated) lysozyme secretion LYZ.NS, 2.5-D 384-well ENR+CD organoid differentiation; format: cell-based, mouse; conditions: primary screen; for Z.LYZ.NS: standard z score
# From the text: as §1
# ENR+CD organoids = experiment: Primary screen: ATP (CellTiter-Glo 3D, CTG) cell number/viability, 2.5-D 384-well ENR+CD organoids; conditions: primary screen; for Z.CTG: standard z score;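 for all read-outs here: compounds given at plating and again on day 3 over a 6-day differentiation from ENR+CV stem-cell-enriched precursors, ATP measured on day 6, plate median as control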
Structure (SMILES),Dose.FC.LYZ.S (log2 fold change) ([1]; dose 0.08 uM),Dose.FC.LYZ.S (log2 fold change) ([1]; dose 0.40 uM),Dose.FC.LYZ.S (log2 fold change) ([1]; dose 2.00 uM),Dose.FC.LYZ.S (log2 fold change) ([1]; dose 10.00 uM),Dose.FC.LYZ.NS (log2 fold change) ([2]; dose 0.08 uM),Z.LYZ.NS (standard z score) ([2]; dose 0.08 uM),Dose.FC.LYZ.NS (log2 fold change) ([2]; dose 0.40 uM),Z.LYZ.NS (standard z score) ([2]; dose 0.40 uM),Dose.FC.LYZ.NS (log2 fold change) ([2]; dose 2.00 uM),Z.LYZ.NS (standard z score) ([2]; dose 2.00 uM),Dose.FC.LYZ.NS (log2 fold change) ([2]; dose 10.00 uM),Z.LYZ.NS (standard z score) ([2]; dose 10.00 uM),Dose.FC.CTG (log2 fold change) (ENR+CD organoids; dose 0.08 uM),Z.CTG (standard z score) (ENR+CD organoids; dose 0.08 uM),Dose.FC.CTG (log2 fold change) (ENR+CD organoids; dose 0.40 uM),Z.CTG (standard z score) (ENR+CD organoids; dose 0.40 uM),Dose.FC.CTG (log2 fold change) (ENR+CD organoids; dose 2.00 uM),Z.CTG (standard z score) (ENR+CD organoids; dose 2.00 uM),Dose.FC.CTG (log2 fold change) (ENR+CD organoids; dose 10.00 uM),Z.CTG (standard z score) (ENR+CD organoids; dose 10.00 uM),also measured
CC(C)NC[C@@H](C(=O)N1CCN(c2ncnc3c2[C@H](C)C[C@H]3O)CC1)c1ccc(Cl)cc1 [GDC-0068],–,–,–,–,–,–,–,–,–,–,–,–,–,–,–,–,–,–,–,–,Dose.FC.LYZ.S ([1]; dose 0.08 uM): 0.076 log2 fold change; Dose.FC.LYZ.S ([1]; dose 0.40 uM): 0.087 log2 fold change; Dose.FC.LYZ.S ([1]; dose 2.00 uM): −0.059 log2 fold change; Dose.FC.LYZ.S ([1]; dose 10.00 uM): −0.319 log2 fold change; Dose.FC.LYZ.NS ([2]; dose 0.08 uM): 0.036 log2 fold change; Dose.FC.LYZ.NS ([2]; dose 0.40 uM): 0.054 log2 fold change; Dose.FC.LYZ.NS ([2]; dose 2.00 uM): −0.077 log2 fold change; Dose.FC.LYZ.NS ([2]; dose 10.00 uM): −0.185 log2 fold change; Z.LYZ.NS ([2]; dose 0.08 uM): 0.311; Z.LYZ.NS ([2]; dose 0.40 uM): 0.469; Z.LYZ.NS ([2]; dose 2.00 uM): −0.675; Z.LYZ.NS ([2]; dose 10.00 uM): −1.613; Dose.FC.CTG (ENR+CD organoids; dose 0.08 uM): 0.042 log2 fold change; Dose.FC.CTG (ENR+CD organoids; dose 0.40 uM): 0.118 log2 fold change; Dose.FC.CTG (ENR+CD organoids; dose 2.00 uM): 0.184 log2 fold change; Dose.FC.CTG (ENR+CD organoids; dose 10.00 uM): −0.100 log2 fold change; Z.CTG (ENR+CD organoids; dose 0.08 uM): 0.099; Z.CTG (ENR+CD organoids; dose 0.40 uM): 0.283; Z.CTG (ENR+CD organoids; dose 2.00 uM): 0.439; Z.CTG (ENR+CD organoids; dose 10.00 uM): −0.238
CN[C@@H](C)C(=O)N[C@H](C(=O)N1CCC[C@H]1C(=O)Nc1snnc1-c1ccccc1)C1CCCCC1 [GDC-0152],–,–,–,–,–,–,–,–,–,–,–,–,–,–,–,–,–,–,–,–,Dose.FC.LYZ.S ([1]; dose 0.08 uM): −0.020 log2 fold change; Dose.FC.LYZ.S ([1]; dose 0.40 uM): −0.036 log2 fold change; Dose.FC.LYZ.S ([1]; dose 2.00 uM): −0.057 log2 fold change; Dose.FC.LYZ.S ([1]; dose 10.00 uM): −0.009 log2 fold change; Dose.FC.LYZ.NS ([2]; dose 0.08 uM): −0.002 log2 fold change; Dose.FC.LYZ.NS ([2]; dose 0.40 uM): −0.020 log2 fold change; Dose.FC.LYZ.NS ([2]; dose 2.00 uM): 0.083 log2 fold change; Dose.FC.LYZ.NS ([2]; dose 10.00 uM): 0.103 log2 fold change; Z.LYZ.NS ([2]; dose 0.08 uM): −0.013; Z.LYZ.NS ([2]; dose 0.40 uM): −0.176; Z.LYZ.NS ([2]; dose 2.00 uM): 0.724; Z.LYZ.NS ([2]; dose 10.00 uM): 0.900; Dose.FC.CTG (ENR+CD organoids; dose 0.08 uM): 0.151 log2 fold change; Dose.FC.CTG (ENR+CD organoids; dose 0.40 uM): 0.158 log2 fold change; Dose.FC.CTG (ENR+CD organoids; dose 2.00 uM): 0.003 log2 fold change; Dose.FC.CTG (ENR+CD organoids; dose 10.00 uM): 0.241 log2 fold change; Z.CTG (ENR+CD organoids; dose 0.08 uM): 0.361; Z.CTG (ENR+CD organoids; dose 0.40 uM): 0.377; Z.CTG (ENR+CD organoids; dose 2.00 uM): 0.008; Z.CTG (ENR+CD organoids; dose 10.00 uM): 0.575
CS(=O)(=O)N1CCN(Cc2cc3nc(-c4cccc5[nH]ncc45)nc(N4CCOCC4)c3s2)CC1 [GDC-0941],–,–,–,–,–,–,–,–,–,–,–,–,–,–,–,–,–,–,–,–,Dose.FC.LYZ.S ([1]; dose 0.08 uM): 0.018 log2 fold change; Dose.FC.LYZ.S ([1]; dose 0.40 uM): −0.076 log2 fold change; Dose.FC.LYZ.S ([1]; dose 2.00 uM): −0.248 log2 fold change; Dose.FC.LYZ.S ([1]; dose 10.00 uM): −0.257 log2 fold change; Dose.FC.LYZ.NS ([2]; dose 0.08 uM): 0.008 log2 fold change; Dose.FC.LYZ.NS ([2]; dose 0.40 uM): −0.013 log2 fold change; Dose.FC.LYZ.NS ([2]; dose 2.00 uM): −0.128 log2 fold change; Dose.FC.LYZ.NS ([2]; dose 10.00 uM): −0.156 log2 fold change; Z.LYZ.NS ([2]; dose 0.08 uM): 0.070; Z.LYZ.NS ([2]; dose 0.40 uM): −0.112; Z.LYZ.NS ([2]; dose 2.00 uM): −1.113; Z.LYZ.NS ([2]; dose 10.00 uM): −1.362; Dose.FC.CTG (ENR+CD organoids; dose 0.08 uM): 0.283 log2 fold change; Dose.FC.CTG (ENR+CD organoids; dose 0.40 uM): 0.022 log2 fold change; Dose.FC.CTG (ENR+CD organoids; dose 2.00 uM): −0.197 log2 fold change; Dose.FC.CTG (ENR+CD organoids; dose 10.00 uM): −1.223 log2 fold change; Z.CTG (ENR+CD organoids; dose 0.08 uM): 0.677; Z.CTG (ENR+CD organoids; dose 0.40 uM): 0.053; Z.CTG (ENR+CD organoids; dose 2.00 uM): −0.472; Z.CTG (ENR+CD organoids; dose 10.00 uM): −2.921
NC(=O)c1cccc(-c2cc(Nc3ccc(OC(F)(F)F)cc3)ncn2)c1 [GNF-2],0.121,0.001,0.046,−0.015,0.159,1.386,−0.024,−0.206,0.012,0.102,−0.033,−0.286,0.157,0.376,0.090,0.214,0.074,0.176,0.100,0.240,–
CC1=C(C(=O)Nc2cc3cn[nH]c3cc2F)C(c2ccc(C(F)(F)F)cc2)CC(=O)N1 (centres unmarked) [GSK429286A],0.247,0.283,0.245,0.099,0.137,1.197,0.128,1.117,0.140,1.222,0.059,0.517,0.527,1.260,0.545,1.302,0.488,1.166,0.370,0.883,–
C[C@@H](Oc1cc(-n2cnc3ccc(CN4CCN(C)CC4)cc32)sc1C(N)=O)c1ccccc1C(F)(F)F [GSK461364],0.112,−0.093,−0.352,−0.390,0.078,0.682,−0.096,−0.834,−0.246,−2.138,−0.287,−2.498,0.160,0.383,−0.154,−0.368,−0.628,−1.500,−0.621,−1.484,–
CCn1c(-c2nonc2N)nc2c(C#CC(C)(C)O)ncc(OC[C@H]3CCCNC3)c21 [GSK690693],0.019,0.155,0.124,−0.153,0.045,0.388,0.047,0.409,0.122,1.060,−0.080,−0.698,0.129,0.308,0.197,0.470,−0.027,−0.064,−0.182,−0.434,–
CC(C)c1noc(N2CCC(COc3ccc(-c4ccc(S(C)(=O)=O)cc4)nc3)CC2)n1 [GSK1292263],0.111,0.101,0.060,0.027,0.078,0.681,0.050,0.434,0.028,0.240,0.020,0.173,0.161,0.384,0.192,0.458,0.224,0.535,0.196,0.468,–
CCc1cc(Nc2nccc(-c3c(-c4ccc(OC)c(C(=O)Nc5c(F)cccc5F)c4)nc4ccccn34)n2)c(OC)cc1N1CCC(N2CCN(S(C)(=O)=O)CC2)CC1 [GSK1904529A],0.133,−0.047,−0.225,−0.276,0.102,0.890,0.112,0.977,−0.179,−1.557,−0.163,−1.419,0.202,0.484,−0.071,−0.170,−0.570,−1.361,−0.691,−1.649,–
Cc1cccc(CC(=O)N2CCc3c2ccc(-c2cn(C)c4ncnc(N)c24)c3F)n1 [GSK2656157],−0.008,0.060,−0.020,0.090,−0.031,−0.267,−0.045,−0.396,−0.033,−0.291,−0.012,−0.102,0.068,0.162,0.115,0.274,0.083,0.197,0.119,0.284,–
